Patent US20100286076A1, “ECTOPARASITICIDAL METHODS AND FORMULATIONS” (priority 2009, published 2010)
Where two headings read alike, the source gives them in different places.

Columns and labels:
House Fly = assay: Adult House Fly Assay (AhsF), feeding on compound-soaked dental wicks, 24 h mortality; parameters: species or system Musca domestica; conditions: 24 h, read-out: Potency (24 h EC50 μM)
Protocol: Adult Stable or House Fly Assay (ASF, AhsF). This assay is conducted essentially as described in White, W. H., S. M. Bauer, X. Zhao et al., Comparison of in vitro and in vivo ectoparasiticide activity of an experimental benzimidazole-carbamate with permethrin and amitraz, J. Med. Entomol. 42, 207-211 (2005); and White, W. H., C. M. McCoy, J. A. Meyer et al., Knockdown and mortality comparisons among spinosad-, imidacloprid-, and methomyl-containing baits against susceptible Musca domestica (Diptera: Muscidae) under laboratory conditions, J. Econ. Entomol. 100, 155-163 (2007).
Test material is formulated in DMSO at 10 mM. Doubling dilutions in like solvent are made to yield 10 testing levels. Materials are diluted in either bovine serum (stable flies) or 5% glucose solution (house flies) to obtain desired exposure concentrations from 200-0.39 μM. Approximately 3 ml of diluted test material is placed into a test tube (n=3 per test level) and a dental wick is used to absorb fluid. One dental wick is placed into a small weigh boat inside of a 100 mm Petri dish. Approximately 10 mixed-sex adult flies are anesthetized using carbon dioxide and counted into each dish. Dishes are incubated at 27° C. and 50-70% relative humidity. Flies recover from anesthesia and feed on compound-soaked dental wicks. After 24 h, live/dead flies are enumerated. Nonlinear regression is used to model dose-mortality relationship and obtain relative potency (LD50) data compared to contemporaneous controls (solvent-only or permethrin).

[1] = tested on: adult cat flea, Ctenocephalides felis; conditions: dogs, historical data, not contemporaneous controls, cited from earlier work

Compound	EC50 (House Fly; Musca domestica) [µM]	EC50 (House Fly; adult house flies, 5% glucose solution) [µM]	geometric mean percent flea reduction, Day 7 ([1]; Day 7) [%]	geometric mean percent flea reduction, Day 14 ([1]; Day 14) [%]	geometric mean percent flea reduction, Day 21 ([1]; Day 21) [%]	geometric mean percent flea reduction, Day 30 ([1]; Day 30) [%]	geometric mean percent flea reduction, Day 37 ([1]; Day 37) [%]	geometric mean percent flea reduction, Knockdown ([1]; Knockdown) [%]
N#Cc1nn(-c2c(Cl)cc(C(F)(F)F)cc2Cl)c(N)c1[S+]([O-])C(F)(F)F (centres unmarked) [Fipronil, reference compound]	0.97							
Spinosad		12	100	99.6	100	97.8	91.1	100
